The assay relates to PDGF-B gene expression in human vascular endothelial cells HUVEC. Description: Evaluation of PDGF-BB production-promoting effect in vascular endothelial cells (PDGF-B mRNA, quantitative RT-PCR). It is filed as cell-based. To be noted: 10 ppm in medium, cultured 2 days, PDGF-BB mRNA vs. solvent control, G3PDH internal standard. The procedure: Human vascular endothelial cells HUVEC were subcultured with EGM-2 medium (Sanko Junyaku Co., Ltd.), and cells of the 4th subculture were suspended in VEGF-A-free Humedia-EG2 medium (Kurabo Industries, Ltd.) and seeded in a collagen-coated 24-well multiplate (Asahi Glass Co., Ltd.) at a 20,000 cell ratio, and culturing was conducted in the presence of 5% CO2 for 3-5 days until the cells reached confluence at 37° C. After exchange with Humedia-EG2 medium (Kurabo Industries, Ltd.) containing each sample added to the specified concentration or an added solvent dissolving each evaluation sample, culturing was continued for 2 days. The mRNA was extracted and purified from the cultured cells using an RNA extraction reagent MagNA Pure LC mRNA HS kit (Roche) and an automatic nucleic acid extraction apparatus MagNA Pure LC 1.0 Instrument (Roche), according to the manufacturer's protocol. For each sample, an equal volume of mRNA was used as template for one-step quantitative real time (RT)-PCR of the PDGF-B gene using primer pairs of SEQ ID NO: 1 and 2 listed below, the reaction reagent QuantiFast SYBR Green RT-PCR Kit (Qiagen) and a LightCycler reactor (Roche). The composition conditions were according to the protocol by Qiagen. […]

As for `O[C@H]1[C@H](O)[C@@H](O)[C@H](O)[C@@H](O)[C@H]1O` [Inositol, myo-inositol], the “PDGF-BB expression (vs. control)” value is reported as 1.37.

In the case of `O=P(O)(O)O[C@H]1[C@H](OP(=O)(O)O)[C@@H](OP(=O)(O)O)[C@H](OP(=O)(O)O)[C@@H](OP(=O)(O)O)[C@H]1OP(=O)(O)O` [Phytic acid, phytic acid], the “PDGF-BB expression (vs. control)” value was 1.20.

The values are drawn from US10391137B2, “Platelet-derived growth factor-BB production promotor, and mesenchymal stem cell production accelerator, stem cell stabilizer and dermal regenerator comprising the same” (Shiseido Company, Ltd., priority 2011, dated 2019).
